Data as given in US20100298141A1, “SUBSTITUTED PYRIDINE N-OXIDE HERBICIDES” (E. I. DU PONT DE NEMOURS AND COMPANY, priority 2007, published 2010).

Key:
winter wheat (TRZAW) [1] = test: Test J preemergence mixtures of Compound 2 with crop safeners; type: in vivo, Triticum aestivum; design: key to TRZAW Obsd. (observed effect): observed % herbicidal effect; conditions: Test J, alone
Excerpt: (§1) Seeds of test plants consisting of winter wheat (TRZAW, Triticum aestivum) and corn (ZEAMD, Zea mays cv. ‘Pioneer 33G26’) were planted into a blend of loam soil and sand and treated preemergence with a directed soil spray using test chemicals formulated in a non-phytotoxic solvent mixture that included a surfactant. […] Balanced fertilizer was applied through the watering system. Treatments consisted of Compound 2 and the above mentioned safeners alone and in combination using a spray volume of 457 L/ha. Each treatment was replicated four times. […] A dash (-) response means no test result. Colby's Equation was used to determine the herbicidal effects expected from the mixtures. Colby's Equation (Colby, S. […] wherein • Pa+b is the percentage effect of the mixture expected from additive contribution of the individual components, • Pa is the observed percentage effect of the first active ingredient at the same use rate as in the mixture, and Pb is the observed percentage effect of the second active ingredient at the same use rate as in the mixture.

corn (ZEAMD) [2] = test: as above; type: in vivo, Zea mays cv. ‘Pioneer 33G26’; design: key to ZEAMD Obsd. (observed effect): observed % herbicidal effect; conditions: Test J, alone
Excerpt: as §1

winter wheat (TRZAW) [3] = test: Test H preemergence mixtures of compound 2 with crop safeners; type: in vivo, Triticum aestivum; design: key to TRZAW Obsd. (observed effect): observed % effect, visually evaluated vs controls; conditions: for TRZAW Obsd. (observed effect): Test H, alone; for Plant response rating TRZAW Obsd.: scale 0 to 100
Excerpt: (§2) Seeds of test plants consisting of winter wheat (TRZAW, Triticum aestivum), corn (ZEAMD, Zea mays cv. ‘Pioneer 33G26’), giant foxtail (SETFA, Setaria faberi), and Italian ryegrass (LOLMU, Lolium multiflorum) were planted into a blend of loam soil and sand and treated preemergence with a directed soil spray using test chemicals formulated in a non-phytotoxic solvent mixture that included a surfactant. Seeds of small-seeded species were planted about 1 cm deep; larger seeds were planted about 2.5 cm deep. […] Balanced fertilizer was applied through the watering system. Treatments consisted of Compound 2 and the above mentioned safeners alone and in combination using a spray volume of 457 L/ha. Each treatment was replicated four times. Treated plants and controls were maintained in a greenhouse for 14 to 21 days, after which time all species were compared to controls and visually evaluated. […] A dash (-) response means no test result. Colby's Equation was used to determine the herbicidal effects expected from the mixtures. Colby's Equation (Colby, S. […] wherein • Pa+b is the percentage effect of the mixture expected from additive contribution of the individual components, • Pa is the observed percentage effect of the first active ingredient at the same use rate as in the mixture, and • Pb is the observed percentage effect of the second active ingredient at the same use rate as in the mixture.

corn (ZEAMD) [4] = test: as above; type: in vivo, Zea mays cv. ‘Pioneer 33G26’; design: key to ZEAMD Obsd. (observed effect): observed % effect, visually evaluated vs controls; conditions: for ZEAMD Obsd. (observed effect): Test H, alone; for Plant response rating ZEAMD Obsd.: scale 0 to 100
Excerpt: as §2

giant foxtail (SETFA) = test: as above; type: in vivo, Setaria faberi; design: key to SETFA Obsd. (observed effect): observed % effect, visually evaluated vs controls; conditions: for SETFA Obsd. (observed effect): Test H, alone; for Plant response rating SETFA Obsd.: scale 0 to 100
Excerpt: as §2

Italian ryegrass (LOLMU) [5] = test: as above; type: in vivo, Lolium multiflorum; design: key to LOLMU Obsd. (observed effect): observed % effect, visually evaluated vs controls; conditions: for LOLMU Obsd. (observed effect): Test H, alone; for Plant response rating LOLMU Obsd.: scale 0 to 100
Excerpt: as §2

winter wheat (TRZAW) [6] = test: Test I preemergence mixtures of compound 2 with crop safeners; type: in vivo, Triticum aestivum; conditions: alone
Excerpt: (§3) Seeds of test plants consisting of winter wheat (TRZAW, Triticum aestivum), corn (ZEAMD, Zea mays cv. ‘Pioneer 33G26’), wild oat (AVEFA, Avena fatua), and Italian ryegrass (LOLMU, Lolium multiflorum) were planted into a blend of loam soil and sand and treated preemergence with a directed soil spray using test chemicals formulated in a non-phytotoxic solvent mixture that included a surfactant. Seeds of small-seeded species were planted about 1 cm deep; larger seeds were planted about 2.5 cm deep. […] Balanced fertilizer was applied through the watering system. Treatments consisted of Compound 2 and the above mentioned safeners alone and in combination using a spray volume of 457 L/ha. Each treatment was replicated four times. Treated plants and controls were maintained in a greenhouse for 14 to 21 days, after which time all species were compared to controls and visually evaluated. […] A dash (-) response means no test result. Colby's Equation was used to determine the herbicidal effects expected from the mixtures. Colby's Equation (Colby, S. […] Pa+b=Pa+Pb−(PaPb/100) wherein • Pa+b is the percentage effect of the mixture expected from additive contribution of the individual components, • Pa is the observed percentage effect of the first active ingredient at the same use rate as in the mixture, and • Pb is the observed percentage effect of the second active ingredient at the same use rate as in the mixture.

corn (ZEAMD) [7] = test: as above; type: in vivo, Zea mays cv. ‘Pioneer 33G26’; conditions: alone
Excerpt: as §3

wild oat (AVEFA) = test: as above; type: in vivo, Avena fatua; conditions: alone
Excerpt: as §3

Italian ryegrass (LOLMU) [8] = test: as above; type: in vivo, Lolium multiflorum; conditions: alone
Excerpt: as §3

[9] = cloquintocet-mexyl alone 8 g a.i./ha
[10] = cloquintocet-mexyl alone 16 g a.i./ha
[11] = cloquintocet-mexyl alone 31 g a.i./ha

| SMILES | TRZAW Obsd. (observed effect) (winter wheat (TRZAW) [1]; 8 g a.i./ha) | TRZAW Obsd. (observed effect) (winter wheat (TRZAW) [1]; 31 g a.i./ha) | TRZAW Obsd. (observed effect) (winter wheat (TRZAW) [1]; 125 g a.i./ha) | TRZAW Obsd. (observed effect) (winter wheat (TRZAW) [1]; 500 g a.i./ha) | ZEAMD Obsd. (observed effect) (corn (ZEAMD) [2]; 8 g a.i./ha) | ZEAMD Obsd. (observed effect) (corn (ZEAMD) [2]; 31 g a.i./ha) | ZEAMD Obsd. (observed effect) (corn (ZEAMD) [2]; 125 g a.i./ha) | ZEAMD Obsd. (observed effect) (corn (ZEAMD) [2]; 500 g a.i./ha) | TRZAW Obsd. (observed effect) (winter wheat (TRZAW) [3]; 8 g a.i./ha) | TRZAW Obsd. (observed effect) (winter wheat (TRZAW) [3]; 16 g a.i./ha) | TRZAW Obsd. (observed effect) (winter wheat (TRZAW) [3]; 31 g a.i./ha) | ZEAMD Obsd. (observed effect) (corn (ZEAMD) [4]; 8 g a.i./ha) | ZEAMD Obsd. (observed effect) (corn (ZEAMD) [4]; 16 g a.i./ha) | ZEAMD Obsd. (observed effect) (corn (ZEAMD) [4]; 31 g a.i./ha) | SETFA Obsd. (observed effect) (giant foxtail (SETFA); 8 g a.i./ha) | SETFA Obsd. (observed effect) (giant foxtail (SETFA); 16 g a.i./ha) | SETFA Obsd. (observed effect) (giant foxtail (SETFA); 31 g a.i./ha) | LOLMU Obsd. (observed effect) (Italian ryegrass (LOLMU) [5]; 8 g a.i./ha) | LOLMU Obsd. (observed effect) (Italian ryegrass (LOLMU) [5]; 16 g a.i./ha) | LOLMU Obsd. (observed effect) (Italian ryegrass (LOLMU) [5]; 31 g a.i./ha) | also measured |
| --- | --- | --- | --- | --- | --- | --- | --- | --- | --- | --- | --- | --- | --- | --- | --- | --- | --- | --- | --- | --- | --- |
| CC(C)(C)c1ccc(C(=O)O)cc1 [4-t-butyl benzoic acid] | 0 | 0 | 0 | 0 | 0 | 0 | 0 | 0 |  |  |  |  |  |  |  |  |  |  |  |  |  |
| CCOC(=O)C1=NN(c2ccc(Cl)cc2Cl)C(C)(C(=O)OCC)C1 (centres unmarked) [mefenpyr-diethyl] |  |  |  |  |  |  |  |  | 0 | 0 | 0 | 0 | 0 | 0 | 0 | 0 | 1 | 3 | 0 | 0 |  |
| CC1COc2ccccc2N1C(=O)C(Cl)Cl (centres unmarked) [benoxacor] | 0 | 0 | 0 | 0 | 0 | 0 | 0 | 0 | 0 | 0 | 0 | 0 | 0 | 0 | 0 | 3 | 0 | 0 | 0 | 0 | TRZAW Obsd. (observed effect) (winter wheat (TRZAW) [6]; 4 g a.i./ha): 0; TRZAW Obsd. (observed effect) (winter wheat (TRZAW) [6]; 8 g a.i./ha): 0; ZEAMD Obsd. (observed effect) (corn (ZEAMD) [7]; 4 g a.i./ha): 0; ZEAMD Obsd. (observed effect) (corn (ZEAMD) [7]; 8 g a.i./ha): 0; AVEFA Obsd. (observed effect) (wild oat (AVEFA); 4 g a.i./ha): 0; AVEFA Obsd. (observed effect) (wild oat (AVEFA); 8 g a.i./ha): 0; LOLMU Obsd. (observed effect) (Italian ryegrass (LOLMU) [8]; 4 g a.i./ha): 0; LOLMU Obsd. (observed effect) (Italian ryegrass (LOLMU) [8]; 8 g a.i./ha): 0 |
| CCCCCC(C)OC(=O)COc1ccc(Cl)c2cccnc12 (centres unmarked) [cloquintocet-mexyl] |  |  |  |  |  |  |  |  |  |  |  |  |  |  |  |  |  |  |  |  | Plant response rating TRZAW Obsd. (winter wheat (TRZAW) [3]; [9]): 0; Plant response rating TRZAW Obsd. (winter wheat (TRZAW) [3]; [10]): 0; Plant response rating TRZAW Obsd. (winter wheat (TRZAW) [3]; [11]): 0; Plant response rating ZEAMD Obsd. (corn (ZEAMD) [4]; [9]): 0; Plant response rating ZEAMD Obsd. (corn (ZEAMD) [4]; [10]): 0; Plant response rating ZEAMD Obsd. (corn (ZEAMD) [4]; [11]): 0; Plant response rating SETFA Obsd. (giant foxtail (SETFA); [9]): 5; Plant response rating SETFA Obsd. (giant foxtail (SETFA); [10]): 3; Plant response rating SETFA Obsd. (giant foxtail (SETFA); [11]): 8; Plant response rating LOLMU Obsd. (Italian ryegrass (LOLMU) [5]; [9]): 0; Plant response rating LOLMU Obsd. (Italian ryegrass (LOLMU) [5]; [10]): 8; Plant response rating LOLMU Obsd. (Italian ryegrass (LOLMU) [5]; [11]): 0; TRZAW Obsd. (observed effect) (winter wheat (TRZAW) [6]; 4 g a.i./ha): 0; TRZAW Obsd. (observed effect) (winter wheat (TRZAW) [6]; 8 g a.i./ha): 0; ZEAMD Obsd. (observed effect) (corn (ZEAMD) [7]; 4 g a.i./ha): 0; ZEAMD Obsd. (observed effect) (corn (ZEAMD) [7]; 8 g a.i./ha): 0; AVEFA Obsd. (observed effect) (wild oat (AVEFA); 4 g a.i./ha): 0; AVEFA Obsd. (observed effect) (wild oat (AVEFA); 8 g a.i./ha): 0; LOLMU Obsd. (observed effect) (Italian ryegrass (LOLMU) [8]; 4 g a.i./ha): 0; LOLMU Obsd. (observed effect) (Italian ryegrass (LOLMU) [8]; 8 g a.i./ha): 0 |
